Data: patent US20170056422A1, “PLASMODIUM LIVER-STAGE INHIBITORS AND RELATED METHODS” (Seattle Biomedical Research Institute, priority 2014, published 2017)
Entries after “also recorded” stand apart in the source; their conditions may differ. Where two headings read alike, the source gives them in different places.

Legend:
[1] = test system: P. yoelii LS parasites; assay: Quantification of LS parasites in P. yoelii-infected Hepa 1-6 cells by manual counting; type: cell-based, Plasmodium yoelii; conditions: for LS burden: 100 nM, 24 or 48 hours; for effect of adding pan-caspase inhibitor qVD-OPh on the LS reduction by the drug: qVD-OPh 20 μM
Procedure: Quantification of LS parasites after ABT-737, ABT-199, Obatoclax, Nutlin-3, or Serdemetan treatment by manual counting. In all, 1.5×10^5 Hepa 1-6 cells were seeded in DMEM complete medium in each well of an eight-well Permanox slide. Cells were infected with 5×10^4 P. yoelii sporozoites. Slides were centrifuged for 3 min at 515× g in a hanging-bucket centrifuge to aid in sporozoite invasion. After 90 min, we removed media that contained sporozoites that had not infected the cells and added fresh media only, or media containing ABT-737 (100 nM), ABT-199 (100 nM), Obatoclax (100 nM), Nutlin-3 (20 μM), or Serdemetan (10 μM) with or without qVD-OPh (20 μM). We allowed LSs to develop for 24 hours or 48 hours, at which time cells were fixed with 4% paraformaldehyde, blocked, and permeabilized for 1 hour in PBS with the addition of 0.1% Triton X-100 and 2% BSA. Staining steps were performed in PBS supplemented with 2% BSA. We stained cells using anti-sera to Plasmodium HSP70 and UIS4 proteins at 4° C. overnight and then washed several times, and antibodies were visualized with the use of AlexaFluor-488 goat anti-mouse and AlexaFluor-594 goat anti-rabbit secondary antibody (Life Technologies, Grand Island, N.Y., USA). We used DAPI stain to visualize both hepatocyte and parasite nuclei. Sporozoites that had not invaded and/or developed in hepatoma cells were distinguished by UIS4 circumferential staining and morphology. All LS parasites in each well were counted, and each assay was performed in biological triplicate.

[2] = test system: p53; assay: Quantification of p53 by Western blotting in Hepa 1-6 cells; type: cell-based; conditions: immunoblot, 24 or 48 hours
Procedure: Quantification of p53 by Western Blotting. We plated 10^6 Hepa 1-6 cells per well of a 6-well plate in DMEM complete media and treated with complete media only, 20 μM Nutlin-3, 100 nM ABT-737, 100 nM Obatoclax, or 10 μM Serdemetan for 24 or 48 hours. Cells were lysed in SDS lysis buffer (2% SDS, 50 mM Tris-HCl, 5% glycerol, 5 mM EDTA, 1 mM NaF, 10 mM β-glycerophosphate, 1 mM PMSF, 1 mM activated Na3VO4, 1 mM DTT, 1% phosphatase inhibitor cocktail 2; Sigma-Aldrich), 1% PhosSTOP Phosphatase Inhibitor Cocktail Tablet (Roche), filtered overnight at 3000 rpm through AcroPrep Advance Filter Plates (Pall Corporation) and stored at −80° C. Western blots were performed according to manufacturer instruction with the iBlot Dry Transfer System (Life Technologies, Carlsbad, Calif., USA) using an antibody to p53 (Clone 1C12; Cell Signaling Technology) and then normalized to signal from an anti-β-actin (Cell Signaling Technology) Western blot. Signals from immunoblots were detected using either an Alexa 680-conjugated anti-rabbit antibody or an Alexa 800-conjugated anti-mouse antibody (LI-COR Biosciences). Membranes were visualized using an Odyssey infrared imaging system (LI-COR Biosciences).

[3] = test system: Hepa 1-6 cells; assay: Cell permeabilization (cell death) assay, flow cytometry; type: cell-based; conditions: 48 hour treatment
Procedure: Cell Permeabilization Assay. Hepa 1-6 cells were seeded in a 24-well tissue culture-treated plate at 3×10^5 cells per well overnight. […] Briefly, cells were stained live with reconstituted dye (1:500) in 500 μL PBS on ice for 30 minutes, mixing periodically, washed twice with 500 μL PBS, and then fixed with 100 μL BD Cytofix/Cytoperm™ fixation/permeabilization (BD Biosciences, San Jose, Calif., USA) solution for 15 minutes on ice. Cells were stored in 200 μL 5 mM EDTA in PBS at 4° C. until analyzed using a BD™ LSR II flow cytometer (BD Biosciences) at 605 nm on the violet 405 nm laser, and resulting FCS files were analyzed with FlowJo 7.6.1 (Tree Star, Ashland, Oreg., USA).

[4] = test system: P. yoelii; assay: Nutlin-3 and Obatoclax in vivo, blood stage patency in BALB/cJ mice; conditions: Nutlin-3 200 mg/kg twice daily, Obatoclax 5 mg/kg once daily; 1000 or 100 spz i.v.
Procedure: Nutlin-3 and Obatoclax in vivo experiments. 60 BALB/cJ mice (Jackson Laboratory, Bar Harbor, Me., USA) were treated with either vehicle control 5 mg/kg of Obatoclax, 200 mg/kg Nutlin-3, or both Obatoclax and Nutlin-3 by oral gavage once (Obatoclax) or twice (Nutlin-3) daily for 3 days. On the second day of treatment, mice were injected with 1000 or 100 P. yoelii sporozoites. Patency was checked by Giemsa-stained thin blood smear daily for the first 7 days, then every other day until day 14. Animal handling was conducted according to the Institutional Animal Care and Use Committee-approved protocols.

[5] = test system: P. yoelii; assay: Specific action of Nutlin-3 in vivo, patency in wild-type and liver-specific p53 knockout mice; conditions: 1000 spz
Description: Specific Action of Nutlin-3 in vivo experiment. Liver-specific p53 knock-out mice were generated by breeding p53 floxed mice (B6.129P2-Trp53tm1Brn/J) and cre-albumin (B6.Cg-Tg(Alb-cre)21Mgn/J). P53 floxed/unfloxed alleles were identified by size of band on a 2% agarose gel (270 bp for WT, 390 bp for floxed) using the primers: forward—[…] (SEQ ID NO:1) and reverse—[…] (SEQ ID NO:2). Cre was identified by the presence/absence of the mutant allele (heterozygotes vs. homozygotes were not distinguished) using the primers: forward—[…] (SEQ ID NO:3) and reverse—[…] (SEQ ID NO:4). All DNA was extracted using Qiagen DNEasy Blood & Tissue Kit (Qiagen Inc., Valencia, Calif., USA) per manufacturer's protocol. PCR was performed using BioMix Red (2×) from BioLine (BioLine USA Inc., Taunton, Mass., USA).
Both wild-type p53 (cre-alb) and liver-specific p53 knockout mice (cre-alb/flox-p53) were treated with either vehicle or Nutlin-3 as described in the previous in vivo method. On the second day of treatment, all mice were infected i.v. with 1000 P. yoelii sporozoites. Patency was checked by Giemsa-stained thin blood smear daily until all mice became patent. Animal handling was conducted according to the Institutional Animal Care and Use Committee-approved protocols.

[6] = cited from earlier work
[7] = test system: P. yoelii LS parasites; assay: Quantification of LS parasites in P. yoelii-infected Hepa 1-6 cells by manual counting; type: cell-based, Plasmodium yoelii; conditions: Serdemetan 10 μM for 24 hours both before and after infection
[8] = reportedly; cited from earlier work
[9] = test system: Hepa 1-6 cells; assay: Apoptosis in Hepa 1-6 cells (data not shown); type: cell-based

Compound | LS burden [1] | effect of adding pan-caspase inhibitor qVD-OPh on the LS reduction by the drug [1] | p53 protein levels [2] | uninfected hepatoma cell death [3] | also measured
CC1(C)CCC(CN2CCN(c3ccc(C(=O)NS(=O)(=O)c4ccc(NCC5CCOCC5)c([N+](=O)[O-])c4)c(Oc4cnc5[nH]ccc5c4)c3)CC2)=C(c2ccc(Cl)cc2)C1 [ABT-199] | minimal decrease; also recorded: did not reduce LS burden | – | – | – | –
CN(C)CC[C@H](CSc1ccccc1)Nc1ccc(S(=O)(=O)NC(=O)c2ccc(N3CCN(Cc4ccccc4-c4ccc(Cl)cc4)CC3)cc2)cc1[N+](=O)[O-] [ABT-737] | efficiently eliminates parasites | almost completely reversed | do not increase p53 levels | no increase | –
COc1ccc(C2=N[C@@H](c3ccc(Cl)cc3)[C@@H](c3ccc(Cl)cc3)N2C(=O)N2CCNC(=O)C2)c(OC(C)C)c1 [Nutlin-3] | – | completely unaltered | substantially boosted | no increase | liver stage parasites eliminated ([1]; Nutlin-3 20 μM, 48 hours): 97%; onset of patency [4]: delay in the onset of patency; onset of patency ([5]; cre-Alb (wild-type p53) mice, 200 mg/kg twice daily oral gavage): highly effective; onset of patency ([5]; liver-specific p53 knockout mice (p53-flox/cre-Alb), 200 mg/kg twice daily): did not delay the onset of patency
COC1=CC(c2cc3ccccc3[nH]2)=N/C1=C\c1[nH]c(C)cc1C [Obatoclax] | – | – | – | no increase | tolerability in humans ([6]; human, in vivo): well-tolerated
c1ccc2c(CCNc3ccc(Nc4ccncc4)cc3)c[nH]c2c1 [Serdemetan] | – | did not reverse | substantially boosted | – | P. yoelii LS burden versus Serdemetan concentration ([1]; 48 hours): dose-dependent manner; LS-infected hepatocytes eliminated ([1]; in vitro, half the dose of Nutlin-3): more than 90%; LS parasites [7]: completely eliminated; toxicity compared with Nutlin-3 [8]: lower toxicity; tolerability in humans ([6]; clinical trials): well-tolerated
CC(C)[C@H](NC(=O)c1ccc2ccccc2n1)C(=O)N[C@@H](CC(=O)O)C(=O)COc1c(F)cccc1F [qVD-OPh, N-(2-Quinolyl)-L-valyl-L-aspartyl-(2,6-difluorophenoxy) methylketone] | – | – | – | – | apoptosis in Hepa 1-6 cells [9]: reverses nearly all apoptosis
